According to patent publication US20090247520A1, “INHIBITORS OF ANTIGEN RECEPTOR-INDUCED NF-kappa B ACTIVATION” (The Burnham Institute for Medical Research, priority 2008, published 2009):
Entries after “also recorded” stand apart in the source; their conditions may differ. Like-named read-outs stand apart in the source and are kept apart here.

Experiments:
[1] = tested on: CD40-induced NF-κB reporter gene activity; assay: NF-κB reporter in HEK293-NF-κB-luc cells over-expressing CD40; assay type: cell-based; conditions: CID-2858522 4 μM, IKK inhibitor 10 μM, PKC inhibitor 1 μM
Protocol: FIGS. 3 (A-F) HEK293-NF-κB-luc cells were pretreated with CID-2858522 (4 μM), IKK inhibitor, BMS-335541 (10 μM), or PKC inhibitor, Bisindolylmaleimide I (1 μM) for 2 hrs and then transfected with plasmids encoding CD4/TLR4 (A), CD40 (B), NOD1 (C), NOD2 (D), cIAP2-MALT1 (E), or XIAP and TAB (F), or pcDNA as control (compounds were not removed). After 48 hrs, luciferase activity was measured expressing data as fold increase relative to unstimulated cells (mean±SD; n=3). (G-H) HEK293-NF-κB-luc cells were pretreated with CID-2858522 (4 μM), or IKK inhibitor, BMS-335541 (10 μM) for 2 hrs and then cultured with 2 μM doxorubicin (G) or 16 μM retinoic acid (H). After 48 hrs, luciferase activity was measured as above.
Counter Screening and Secondary Assays. To counter-screen for inhibitors of the TNF pathway, HEK293-NFκB-Luc cells were seeded at 10^5 cells per well in 90 μL medium in white 96-well plates (Greiner Bio-One) and cultured overnight, before adding compounds (5 μL in medium) to cells. After 2 h incubation, 5 μL TNF (200 ng/mL) (R&D Systems) was added (final concentration 10 ng/mL) and cells were incubated for 16 h. Luciferase activity was measured using Britelite kit (Perkin Elmer). To counter-screen for inhibitors of NF-κB induced by TLR4, CD40, NOD1, NOD2, cIAP2/MALT, or XIAP/TAB, the 293-NF-κB-luc cells cultured in 96 well plates as above were pretreated with compounds for 2 h and then transfected using Lipofectamine 2000 with various plasmids including pcDNA3 (“empty vector” control) or plasmids encoding CD4-TLR4, CD40, NOD1, NOD2, cIAP2/MALT, XIAP/TAB, using 0.2 μL of transfection reagent containing 100 ng DNA per well. Cells were cultured in medium containing CID-2858522 or other compounds and luciferase activity was measured 48 h later. […] Reactions were then initiated by addition of 50 μL 160 nM ATP (Sigma) in PBS and luciferase activity was measured 2 h later using a luminometer (LJL Biosystems, Sunnyvale, Calif.).

Jurkat cells = assay: Jurkat cell viability (ATPlite); assay type: cell-based; conditions: 24 h
Protocol: FIG. 4A: Jurkat T cells were treated by anti-cd3/anti-cd28/anti-mouse IgG (6 μg/mL) or PMA/Ion (10 ng/mL) for 24 h, IL-2 production in medium was measured by ELISA kit. FIG. 4B-E: Jurkat T cells were pretreated by IKK inhibitor (B), PKC inhibitor (C), CID-2858522 (D) for 2 h and then treated by anti-cd3/anti-cd28/anti-mouse IgG (6 μg/mL) or PMA/Ion (10 ng/mL) for 24 h, IL-2 production in medium was measured by ELISA kit; E, Jurkat cells were treated by CID-2858522, PKC inhibitor and IKK inhibitor for 24 h, cell viability was measured by ATPlite kit.
Cell viability assay. Cell viability was estimated based on cellular ATP levels, measured using ATPlite kit (Perkin Elmer). Cells at a density of 10^5/mL were seeded at 90 μL per well in 96-well white plates and cultured overnight. Compounds were added (5 μL in medium) to wells and cells were cultured for […], Finally, 50 μL ATPlite solution was added to each well and luminescence activity was read using a luminometer (LJL Biosystems, Sunnyvale, Calif.).

[2] = tested on: anti-IgM-induced lymphocyte proliferation; assay: Lymphocyte proliferation assay (3H-Thymidine), anti-IgM-stimulated splenocytes; assay type: cell-based, mouse; conditions: for IC50: mouse splenocytes, 3H-Thymidine incorporation, read-out: IC50, lymphocyte proliferation, B-cells (anti-IgM)
Protocol: (§1) (A) Isolated mouse primary splenocytes were cultured with anti-CD3/anti-CD28 (0.3 μg/mL each) or anti-IgM (3 μg/mL) for 48 h, then 1 μCi 3H-Thymidine was added for 12 h and incorporation into DNA was measured, expressing data as fold increase above unstimulated cells (mean±SD; n=3). (B-D) Primary splenocytes were pretreated for 2 h with IKK inhibitor, BMS-335541 (B), PKC inhibitor, Bisindolylmaleimide I (C) or CID-2858522 (D), then stimulated with anti-CD3/anti-CD28 (0.3 μg/mL) or anti-IgM (3 μg/mL) for 48 h. 1 μCi 3H-Thymidine was added for 12 h and incorporation into DNA was measured, expressing data as percent inhibition relative to control cells treated with DMSO (mean±SD; n=3). […] Levels of TRAF1 and β-actin were assessed by immunoblotting, quantified by densitometry and TRAF1 results reported relative to control cells, after normalization for β-actin (mean±SD). […] Then nuclear extracts were prepared and p65-DNA-binding activity was measured (mean±SD; n=3).
(§2) Lymphocyte proliferation assay. Splenocytes were isolated from normal Balb/c mice and red blood cells were removed using a mouse erythrocyte lysis kit (R&D Systems, Minneapolis, Minn.). Splenocytes were suspended in RMPI-1640 medium supplemented with 10% FBS, 1% penicillin-streptomycin, and 1 mM L-glutamine. Cells were diluted into 2×10^6 cells/mL and 200 μL were seeded in round bottom 96-well plates and incubated at 37° C. in 5% CO2 and 95% relative humidity. Cells were pretreated with compounds or DMSO diluted in medium for 2 h, then treated with anti-CD3/anti-CD28 or anti-IgM antibodies for 48 h, prior to adding 1 μCi [^3H]-Thymidine for (MP Biomedical, Solon, Ohio) 12 h. Cells were transferred to fiberglass filters (Wallac, Turku, Finland) using a FilterMate Harvester (Perkin Elmer), dried, and [^3H]-incorporation into DNA was quantified by scintillation counting Betaplate Scint (Perkin Elmer) and a MicroBetaTrilux LCS and luminescence counter (Perkin Elmer).

[3] = tested on: anti-CD3/CD28-induced lymphocyte proliferation; assay: Lymphocyte proliferation assay (3H-Thymidine), anti-CD3/CD28-stimulated splenocytes; assay type: cell-based; conditions: mouse splenocytes; for IC50: 3H-Thymidine incorporation, read-out: IC50, lymphocyte proliferation, T-cells (anti-CD3/CD28)
Protocol: as §1, §2

Structure (SMILES)	suppression of CD40-induced NF-κB reporter [1]	cytotoxicity to Jurkat cells (Jurkat cells)	IC50 ([2]; Lymphocyte) [nM]	suppression of lymphocyte proliferation ([2]; concentrations of 5 μM, stimulus not specified)	IC50 ([3]; Lymphocyte) [nM]	effect on anti-CD3/CD28-induced lymphocyte proliferation [3]	IC50 [2] [nM]	IC50 [3] [nM]
Cc1ccc2nc(NCCN)c3ncc(C)n3c2c1 [BMS-345541, reference compound]	potently suppressed	not due to cytotoxicity	~2000	essentially completely suppressed	~4000	–	–	–
Cc1cc2nc(NCCCO)n(CC(=O)c3cc(C(C)(C)C)c(O)c(C(C)(C)C)c3)c2cc1C [Compound 1, 2-(2-(3-Hydroxypropylamino)-5,6-dimethyl-1H-benzo[d]imidazol-1-yl)-1-(3,5-di-tert-butyl-4-hydroxyphenyl)ethanone]	did not inhibit; also recorded: not by CID-2858522	not due to cytotoxicity	2000	–	–	minimal effect	–	–
CN(C)CCCn1cc(C2=C(c3c[nH]c4ccccc34)C(=O)NC2=O)c2ccccc21 [Bisindolylmaleimide I, reference compound]	not by CID-2858522 or by the PKC inhibitor	not due to cytotoxicity	–	–	–	–	200	11500
